Assay results from the METLIN SMRT retention time set (Domingo-Almenara et al. 2019).

Experiment: gradient 5% acetonitrile 3 min, to 50% in 2 min, to 85% in 15 min, held 3 min, 100 µL/min
Settings: column: Zorbax Extend-C18 2.1 x 50 mm; eluents: water / acetonitrile, 0.1% formic acid
How it was run: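 The system's dead and dwell volumes were 40 μL and 900 μL, with a Zorbax Extend-C18 column (2.1 × 50 mm, 1.8 μm) run at 100 μL/min in water and acetonitrile containing 0.1% formic acid each. Pure standards were analyzed in mixtures of ~100 molecules by HPLC–quadrupole time-of-flight mass spectrometry in positive and negative ionization mode. Retention time was assigned from computationally picked, manually inspected adduct peaks.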

| RP-LC retention time [s] | SMILES |
| --- | --- |
| 586 | CCCN1CCN(C(=O)C2CCN(S(=O)(=O)c3ccc4c(c3)NC(=O)CO4)CC2)CC1 |
| 849 | CCOc1ccccc1N1C=C(C(=O)OC)S(=O)(=O)c2ccccc21 |
| 1310 | COc1cccc(C2Cn3nnc(-c4nc(-c5ccc(OC(F)(F)F)cc5)no4)c3CO2)c1 (stereo unspecified) |
| 844 | Cc1sc(NC(=O)c2ccco2)nc1-c1ccc2c(c1)N(C)C(=O)CO2 |
| 1190 | Cc1nc(N2CCN(c3ccccc3F)CC2)nc2c1C(=O)CC(c1ccccc1O)C2 (stereo unspecified) |
| 1190 | CCc1cc(C(=O)Nc2cc(C)ccc2OC)nc2ccnn12 |
| 640 | O=C(C1CCN(c2nnc(-n3cccc3)s2)CC1)N1CCN(c2ccccn2)CC1 |
| 1100 | CCCCOP(=O)(OCCCC)C1(C)CC(=O)CC(C)(C)C1 (stereo unspecified) |
| 575 | CN(C)C(CNC(=O)Cn1c(=O)oc2ccccc21)c1cn(C)c2ccccc12 (stereo unspecified) |
| 818 | O=C(NCc1ccc2c(c1)N(C(=O)c1ccccc1)CC2)NC1CCCC1 |
| 741 | Cc1oc(-c2[nH]ncc2C(=O)N2CCCC2)cc1S(=O)(=O)Nc1cccc(Cl)c1 |
| 1040 | O=C(COc1ccccc1[N+](=O)[O-])Nc1nc(-c2ccccc2)cs1 |
| 1130 | CCOc1ccc(C2Cn3nnc(-c4nc(-c5ccc(F)cc5)no4)c3CO2)cc1 (stereo unspecified) |
| 752 | Cc1ccnc(NC(c2ccccc2)c2ccc3cccnc3c2O)c1 (stereo unspecified) |
| 763 | CC(=O)Nc1ccc(SCc2nnc(-c3ccccc3)o2)cc1 |
| 616 | CCCNc1cc(N2CCCC(CCC(=O)NC(C)C)C2)ncn1 (stereo unspecified) |
| 727 | COCCNC(=O)CN1c2ccccc2NC2=C(C(=O)CC(C)(C)C2)C1c1cccs1 (stereo unspecified) |
| 1110 | CCn1c(C(=O)NC2CCCC2)cc2sc(Cl)cc21 |

| RP-LC retention time [s] | SMILES |
| --- | --- |
| 716 | CCn1ccc2sc(C)c(C(=O)NCc3ccc(OC)c(OC)c3)c2c1=O |
| 905 | O=C(c1cc2cc(Br)ccc2[nH]1)N1CCCC1 |
| 676 | CC(C)(C)C(=O)NC1CCN(C(=O)c2ccccc2)C1 (stereo unspecified) |
| 574 | CN(C)CCNC(=O)C1CCN(c2nc3ccc(-c4cncnc4)nc3s2)CC1 |
| 916 | COc1cc(OC)cc(-c2noc(-c3nn(-c4ccc(C)cc4)ccc3=O)n2)c1 |
| 621 | CC(C)NC(=O)C1CC(=O)N(c2n[nH]c3cccc(F)c23)C1 (stereo unspecified) |
| 834 | COc1ccc(OCC(=O)N2CCCN(c3cc(=O)n(C(C)C)c(=O)n3C(C)C)CC2)cc1 |
| 610 | CCNC(=O)C1Cc2cc(C(F)(F)F)ccc2N2CCN(Cc3ccc(F)cc3)CC12 (stereo unspecified) |
| 641 | O=C(/C=C/c1ccc(O)c(O)c1)c1ccc(O[C@@H]2O[C@H](CO)[C@@H](O)[C@H](O)[C@H]2O)c(O)c1O |
| 1030 | CCC1CCCCN1c1nc(-c2ccc([N+](=O)[O-])cc2)nc2ccccc12 (stereo unspecified) |
| 548 | Cc1cc(C)cc(NC(=O)CN2CCC(C(=O)NCc3ccccn3)CC2)c1 |
| 1110 | CCOC(=O)c1c(N2CCOCC2)nc2ccc([N+](=O)[O-])cc2c1-c1ccccc1 |
| 656 | O=C(c1ccccc1Cl)N1CCC2(CC1)OCC(C(=O)N1CCOCC1)N2C(=O)c1ccccc1 (stereo unspecified) |
| 641 | CCOc1ccccc1C(=O)N1CCc2[nH]cnc2C12CCCCC2 |
| 968 | CCCn1cc(C(=O)NCCC(C)C)c2nn(-c3ccccc3)c(=O)c-2c1 |
| 659 | CCCn1cnnc1C1CCCCN1C(=O)NCc1ccc(OC)cc1 (stereo unspecified) |
| 1040 | COc1ccc(-c2nnc(-c3cc(S(=O)(=O)NCc4cccs4)ccc3Cl)o2)cc1 |
| 1130 | O=S(=O)(Nc1ccc(F)cc1)c1cccnc1Nc1cccc(Cl)c1 |
